Values after ≈ are worked out from the molar mass of the structure shown. Like-named read-outs stand apart in the source and are kept apart here.
System: coxsackie B3 viruses
Experiment: Measures of anti-coxsackie B3 viruses activity of the compounds in Vero cells
Assay type: cell-based
Excerpt: Measures of Anti-Coxsackie B3 Viruses Activity of the Compounds The products are applied for measures of antivirus properties of Vero cells. Refer to the results of Table 3: datum of anti-coxsackie B3 viruses activities of some compounds. […] IC50 indicates half inhibitory concentration for viruses. RBV indicates triazole nucleoside, is also called ribavirin, virazole.

[1] = half inhibitory concentration for viruses

Row | IC50 [1] [µg/mL] | IC50 (Enterovirus B, B3, half inhibitory concentration for viruses, read-out: IC50) [µg/mL] | SMILES
1 | 5.8 (≈ 13.4 µM) |  | O=C(NC(CO)C(O)c1ccc([N+](=O)[O-])cc1)c1cccc2[nH]c(-c3cccnn3)nc12 (stereo not shown) [(L)-2-(3-pyridazinyl)-1H-benzimidazole-4-[N-(1-hydroxymethyl-2-p-nitrophenylhydroxyethyl)]amide]
2 | 17.2 (≈ 35.5 µM) |  | Nc1ncnc(Cl)c1-c1nc2c(C(=O)NC(CO)C(O)c3ccc([N+](=O)[O-])cc3)cccc2[nH]1 (stereo not shown) [(L)-2-(4-amino-6-chloro-5-pyrimidinyl)-1H-benzimidazole-4-[N-(1-hydroxymethyl-2-p-nitrophenylhydroxyethyl)]amide]
3 | 10.2 (≈ 21.4 µM) |  | CN(C)c1ccnc(-c2nc3c(C(=O)NC(CO)C(O)c4ccc([N+](=O)[O-])cc4)cccc3[nH]2)c1 (stereo not shown) [(L)-2-(4-dimethylaminopyridyl)-1H-benzimidazole-4-[N-(1-hydroxymethyl-2-p-nitrophenylhydroxyethyl)]amide]
4 | 6.3 (≈ 13.6 µM) |  | COc1ccnc(-c2nc3c(C(=O)NC(CO)C(O)c4ccc([N+](=O)[O-])cc4)cccc3[nH]2)c1 (stereo not shown) [(L)-2-(4-methoxypyridyl)-1H-benzimidazole-4-[N-(1-hydroxymethyl-2-p-nitrophenylhydroxyethyl)]amide]
5 | 8.9 (≈ 19 µM) |  | Cc1nc(-c2nc3c(C(=O)NC(CO)C(O)c4ccc([N+](=O)[O-])cc4)cccc3[nH]2)sc1N (stereo not shown) [(L)-2-(4-methyl-5-aminothiazolyl)-1H-benzimidazole-4-[N-(1-hydroxymethyl-2-p-nitrophenylhydroxyethyl)]amide]
6 | 2.3 (≈ 5.07 µM) |  | Nc1ccc(-c2nc3c(C(=O)NC(CO)C(O)c4ccc([N+](=O)[O-])cc4)cccc3[nH]2)s1 (stereo not shown) [(L)-2-(5-amino-2-thienyl)-1H-benzimidazole-4-[N-(1-hydroxymethyl-2-p-nitrophenylhydroxyethyl)]amide]
7 | 10.69 (≈ 22.1 µM) |  | O=C(NC(CO)C(O)c1ccc([N+](=O)[O-])cc1)c1cccc2[nH]c(-c3ccc([N+](=O)[O-])s3)nc12 (stereo not shown) [(L)-2-(5-nitro-2-thienyl)-1H-benzimidazole-4-[N-(1-hydroxymethyl-2-p-nitrophenylhydroxyethyl)]amide]
8 | 11.2 (≈ 24.2 µM) |  | COc1cccc(-c2nc3c(C(=O)NC(CO)C(O)c4ccc([N+](=O)[O-])cc4)cccc3[nH]2)n1 (stereo not shown) [(L)-2-(6-methoxypyridyl)-1H-benzimidazole-4-[N-(1-hydroxymethyl-2-p-nitrophenylhydroxyethyl)]amide]
9 | 11.1 (≈ 25.5 µM) |  | Cn1cccc1-c1nc2c(C(=O)NC(CO)C(O)c3ccc([N+](=O)[O-])cc3)cccc2[nH]1 (stereo not shown) [(L)-2-(N-methyl-2-pyrrolyl)-1H-benzimidazole-4-[N-(1-hydroxymethyl-2-p-nitrophenylhydroxyethyl)]amide]
10 | 4.2 (≈ 9.54 µM) |  | O=C(NC(CO)C(O)c1ccccc1[N+](=O)[O-])c1cccc2[nH]c(N3CCNCC3)nc12 (stereo not shown) [(L)-2-N-piperazinyl-1H-benzimidazole-4-[N-(1-hydroxymethyl-2-o-nitrophenylhydroxyethyl)]amide]
11 | 11.2 (≈ 25.5 µM) |  | O=C(NC(CO)C(O)c1ccc([N+](=O)[O-])cc1)c1cccc2[nH]c(-c3nccs3)nc12 (stereo not shown) [(L)-2-thiazolyl-1H-benzimidazole-4-[N-(1-hydroxymethyl-2-p-nitrophenylhydroxyethyl)]amide]
12 | 9.6 (≈ 20.4 µM) |  | O=C(NC(CO)C(O)c1ccc([N+](=O)[O-])cc1)c1cccc2[nH]c(-c3c[nH]c4ccccc34)nc12 [(L-)2-(3-indolyl)-1H-benzimidazole-4-[N-(1-hydroxymethyl-2-p-nitrophenylhydroxyethyl)]amide]
13 |  | 354 (≈ 1450 µM) | NC(=O)c1ncn([C@@H]2O[C@H](CO)[C@@H](O)[C@H]2O)n1 [RBV, ribavirin, reference compound]

— patent US8871946B2, “Benzimidazole-4-carboxamide derivatives, their preparation methods, pharmaceutical compositions and their uses” (Zhejiang Medicine Co., Ltd. Xinchang Pharmaceutical Factory, priority 2009, dated 2014)
